Results from patent US11891386B2, “Indole compounds and their use” (ARIAGEN, INC., priority 2017, dated 2024).
Read-outs that look alike come from different tables or passages of the source.

What was measured:
mouse hepatocytes = assay: Hepatocyte intrinsic clearance assay, mouse hepatocytes; type: in vitro ADME; conditions: for CLint (μL/min/10^6 ells) / EH (%) hepatic extraction ratio: Mouse Hepatocytes; for CLint (μL/min/10^6 ells): 1 μM test compound; for EH (%) hepatic extraction ratio: well stirred liver model, fu=1
Method in brief: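 Cryopreserved pooled male human or male CD-1 mouse hepatocytes (1×10^6 cells/mL final) incubated with 1 μM compound at 37° C, sampled from 0 to 120 min, quenched in acetonitrile and analysed by LC-MS in duplicate. t1/2 and CLint come from the ln(% remaining) vs time slope. EH comes from the well-stirred liver model with fu=1.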

[1] = test system: EMT-6 syngeneic mouse tumor model (breast cancer); assay: Anti-tumor activity, EMT-6 syngeneic mouse tumor model; type: in vivo; conditions: for anti-tumor potency, in words / tumor growth and survival, in words / complete tumor regression (CR): EMT-6 model; for anti-tumor potency, in words / tumor growth and survival, in words: 40 mpk; for inhibition in vivo at 40 mg/kg: Mus musculus, EMT6, ip, read-out: TGI (tumor growth inhibition)
Experimental: This example describes in vivo studies that evaluated the anti-cancer efficacy of the disclosed indole compounds in syngeneic mouse tumor models. Mice implanted subcutaneously with four types of cancer cells were treated with test indole compounds or vehicle controls as described below.
A monolayer culture of tumor cells was maintained in vitro in DMEM or RPMI1640 medium supplemented with 10% fetal bovine serum at 37° C. in an atmosphere of 5% CO2. Cells in exponential growth phase were harvested and quantitated by cell counter before tumor inoculation. The cell lines used are described in the table below.
Four subcutaneous syngeneic mouse tumor models were generated by innoculating female BALB/C or C57BL/6 mice with cancer cells at their right lower or front flank as detailed in the table below:
Each mouse was inoculated subcutaneously with tumor cells in 0.1 mL of PBS. Treatments were started when the mean tumor size reached approximately 80-120 mm^3 (around 100 mm^3). The administration of the indole compounds and the animal number in each study group are shown in the study design. The date of tumor cell inoculation was denoted as day 0.
The indole compounds were dissolved in DMSO at the final concentration of 26.7 mg/ml and stored at room temperature.
Randomization of animals was started when the mean tumor size reached approximately 90 mm^3 to form the mouse study groups. The randomization was performed based on “Matched distribution” method using the multi-task method (StudyDirector™ software, version 3.1.399.19)/randomized block design. The mouse groups (ten in each group) were treated with vehicle (DMSO) or the indole compounds at a dose of 40 mg/kg by i.p. injection, QD for 28 days or longer.
After tumor cell inoculation, the mice were checked daily for morbidity and mortality. During routine monitoring, the mice were checked for tumor growth and any effects of the treatment on behavior such as mobility, food and water consumption, body weight gain/loss (body weights were measured twice per week after randomization), eye/hair matting, and any other abnormalities. Mortality and observed clinical signs were recorded for individual mice in detail.
Tumor volumes were measured twice per week in two dimensions using a caliper, and the volume was expressed in mm^3 using the formula: V=(L×W×W)/2, where V is tumor volume, L is tumor length (the longest tumor dimension) and W is tumor width (the longest tumor dimension perpendicular to L). Dosing as well as tumor and body weight measurements was conducted in a Laminar Flow Cabinet. The body weights and tumor volumes were measured by using StudyDirector™ software (version 3.1.399.19). Dosing Holiday
Tumor growth inhibition percentage (TGI %) is an indicator for antitumor activity of a drug compound, and expressed as: TGI (%)=100×(1−T/C), where T and C are the mean tumor volume (or weight) of the treated and control groups, respectively, on a given day. Statistical analysis of the difference in mean tumor volume (MTV) among the groups was conducted using the data collected on the day when the MTV of the vehicle group reached the humane endpoints, so that TGI could be derived for all or most mice enrolled in the study.
In Studies 1 and 3, the anti-tumor activity of ARI-001 in parallel with ARI-002 at 160 mg/kg (mpk), and the anti-tumor activity of ARI-087 in parallel with ARI-002 at 40 mpk were assessed using the EMT-6, Pan02, A20, and LL/2 models. Because EMT-6 provides a fast-growing model that enables relatively quick differentiation of performance between compounds, this syngeneic mouse tumor model was chosen for the other studies. In Study 2, the anti-tumor activity of ARI-002 was compared with that of ARI-004 at 10, 40, and 80 mpk. In Study 4, the anti-tumor activity of ARI-087 was compared with that of ARI-140. In Study 5, the anti-tumor activity of ARI-087 was evaluated in parallel with ARI-143 and ARI-149 at 40 mpk. […]

[2] = 672 h, Study 4, EMT-6, 40 mpk i.p. QD, D28
[3] = 720 h, Study 5, EMT-6, 40 mpk i.p. QD, D30

SMILES	CLint (μL/min/10^6 ells) (mouse hepatocytes)	EH (%) hepatic extraction ratio (mouse hepatocytes)	anti-tumor potency, in words [1]	inhibition in vivo at 40 mg/kg ([1]; 624 h, Study 6, EMT-6, 40 mpk i.p. QD, D26)	clearance / metabolic profile, in words (mouse hepatocytes; mouse hepatocytes)	tumor growth and survival, in words [1]	complete tumor regression (CR) ([1]; Study 4, by day 46)	inhibition in vivo at 40 mg/kg [1, 2]	inhibition in vivo at 40 mg/kg [1, 3]	EH lower as compared to ARI-002, in words (mouse hepatocytes; mouse hepatocytes)	times lower clearance as compared to ARI-002 (mouse hepatocytes; mouse hepatocytes)	complete tumor regression (CR) ([1]; Study 5, by day 51)
Nc1nnc(-c2csc(C(=O)c3c[nH]c4ccccc34)n2)s1 [ARI-090, (4-(5-amino-1,3,4-thiadiazol-2-yl)thiazol-2-yl)(1H-indol-3-yl)methanone]	2.5 μL/min/10^6 ells	13%	less anti-tumor potency than ARI-087	30.1%								
Nc1nnc(-c2csc(C(=O)c3c[nH]c4c(F)cccc34)n2)o1 [ARI-118, (4-(5-amino-1,3,4-oxadiazol-2-yl)thiazol-2-yl)(7-fluoro-1H-indol-3-yl)methanone]	0.8 μL/min/10^6 ells	4.6%	superior anti-tumor activity than ARI-087		low clearance	delay tumor growth and prolong survival	1 out of 10	54.5%				
Nc1nnc(-c2csc(C(=O)c3c[nH]c4cc(Cl)c(Cl)cc34)n2)o1 [ARI-120, (4-(5-amino-1,3,4-oxadiazol-2-yl)thiazol-2-yl)(5,6-dichloro-1H-indol-3-yl)methanone]	0.9 μL/min/10^6 ells	4.8%	less anti-tumor potency than ARI-087		low clearance				27.2%			
CCC(=O)c1csc(C(=O)c2c[nH]c3c(F)cccc23)n1 [ARI-140, 1-(2-(7-fluoro-1H-indole-3-carbonyl)thiazol-4-yl)propan-1-one]	1.5 μL/min/10^6 ells	8.3%						30.6%				
CCC(=O)c1csc(C(=O)c2c[nH]c3cc(F)ccc23)n1 [ARI-143, 1-(2-(6-fluoro-1H-indole-3-carbonyl)thiazol-4-yl)propan-1-one]	2.3 μL/min/10^6 ells	12%	most potent ketone derivative			delay tumor growth and prolong survival			65.9%	eight times lower	418 times	2 out of 10
NCc1nnc(-c2csc(C(=O)c3c[nH]c4c(F)cccc34)n2)o1 [ARI-145, (4-(5-(aminomethyl)-1,3,4-oxadiazol-2-yl)thiazol-2-yl)(7-fluoro-1H-indol-3-yl)methanone]	5.1 μL/min/10^6 ells	23%	less anti-tumor potency than ARI-087						10.5%			
NCc1nc(-c2csc(C(=O)c3c[nH]c4c(F)cccc34)n2)no1 [ARI-146, (4-(5-(aminomethyl)-1,2,4-oxadiazol-3-yl)thiazol-2-yl)(7-fluoro-1H-indol-3-yl)methanone]	6.9 μL/min/10^6 ells	29%	less anti-tumor potency than ARI-087						23.2%			
Nc1nnc(-c2csc(C(=O)c3c[nH]c4ccc(F)cc34)n2)o1 [ARI-148, (4-(5-amino-1,3,4-oxadiazol-2-yl)thiazol-2-yl)(5-fluoro-1H-indol-3-yl)methanone]	3.6 μL/min/10^6 ells	18%	less anti-tumor potency than ARI-087						4.8%			
CCC(=O)c1csc(C(=O)c2c[nH]c3cc(F)c(F)cc23)n1 [ARI-149, 1-(2-(5,6-difluoro-1H-indole-3-carbonyl)thiazol-4-yl)propan-1-one]	2.9 μL/min/10^6 ells	15%							42.7%			
